Among the data in ChEMBL document CHEMBL1156230, “Identification of phenylsulfone-substituted quinoxaline (WYE-672) as a tissue selective liver X-receptor (LXR) agonist” (J Med Chem, 2010) are EC50, Efficacy and IC50 values, retold here.

pEC50, pIC50: −log10 of the molar value.

Experiment [1] relates to HepG2. Briefly: cells. Particulars: Homo sapiens, HepG2, 3 h.
For experiment [2], the system named is HepG2. The experiment can be described thus: Agonist activity at LXR in human HepG2 cells assessed as lipid accumulation relative to T0901317.
The next experiment deals with THP-1. Briefly: cells. The conditions noted are these: Homo sapiens.
The target of experiment [3] is T1, Oxysterols receptor LXR-alpha (Homo sapiens, UniProt Q13133).
T1 sequence (Q13133 whole entry): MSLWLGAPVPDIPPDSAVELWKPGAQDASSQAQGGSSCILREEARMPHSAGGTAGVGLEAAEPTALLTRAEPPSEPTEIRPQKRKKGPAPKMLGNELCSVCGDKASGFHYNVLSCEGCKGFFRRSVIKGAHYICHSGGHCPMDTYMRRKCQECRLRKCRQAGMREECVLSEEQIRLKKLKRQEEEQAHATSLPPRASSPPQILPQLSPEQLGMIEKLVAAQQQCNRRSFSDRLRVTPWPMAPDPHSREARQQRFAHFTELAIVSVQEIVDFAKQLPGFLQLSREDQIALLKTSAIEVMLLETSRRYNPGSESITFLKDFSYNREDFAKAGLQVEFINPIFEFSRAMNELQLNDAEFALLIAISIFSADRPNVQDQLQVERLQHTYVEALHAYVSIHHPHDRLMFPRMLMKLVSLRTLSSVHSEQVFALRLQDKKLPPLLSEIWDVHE
The experiment can be described thus: Displacement of [3H]T0901317 from human LXRalpha ligand binding domain.

The target of experiment [4] is T2, Oxysterols receptor LXR-beta (Homo sapiens, UniProt P55055). The experiment can be described thus: Displacement of [3H]T0901317 from human LXRbeta ligand binding domain. (Displacement assays read how much labelled ligand stays bound in the presence of the test substance.)
T2 sequence (P55055 whole entry, the tested form may be a part): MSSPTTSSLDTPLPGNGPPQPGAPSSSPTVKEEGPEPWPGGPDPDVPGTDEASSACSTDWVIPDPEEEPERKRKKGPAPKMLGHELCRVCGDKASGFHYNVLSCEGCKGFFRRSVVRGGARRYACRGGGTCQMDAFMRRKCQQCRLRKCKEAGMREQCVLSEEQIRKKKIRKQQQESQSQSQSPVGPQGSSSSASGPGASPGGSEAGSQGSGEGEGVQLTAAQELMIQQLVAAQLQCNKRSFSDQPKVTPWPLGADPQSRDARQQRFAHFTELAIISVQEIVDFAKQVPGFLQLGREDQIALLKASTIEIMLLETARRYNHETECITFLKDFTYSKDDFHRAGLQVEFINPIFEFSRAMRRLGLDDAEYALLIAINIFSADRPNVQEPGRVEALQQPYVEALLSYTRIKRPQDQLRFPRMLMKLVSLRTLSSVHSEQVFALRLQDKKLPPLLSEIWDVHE
Experiment [5] deals with T3, Oxysterols receptor LXR-alpha (Homo sapiens, UniProt Q13133).
The target in experiment [6] is T2, Oxysterols receptor LXR-beta.
The target in experiment [7] is T3, Oxysterols receptor LXR-alpha. This is another data set of the same source.
Experiment [8] concerns the target T2, Oxysterols receptor LXR-beta. This is another data set of the same source.

Regarding `CCc1nc2c(C(F)(F)F)cccc2nc1-c1ccc(-c2cccc(S(C)(=O)=O)c2)cc1`, the pEC50 – broadly, the EC50 on a negative log10 scale, so that one unit is a factor of ten – is 6.46 in the experiment with HepG2 [1] and 6.05 in the experiment with THP-1. The Efficacy in the experiment with HepG2 [2] was 32%.
Turning to `Cc1nc2c(C(F)(F)F)cccc2nc1-c1ccc(-c2ccccc2S(C)(=O)=O)cc1`, the pIC50 (in general, the negative decadic logarithm of the IC50, by convention in mol/L) in experiment [3] was under 6.00.
Still for that read-out and setting: for `Cc1nc2c(C(F)(F)F)cccc2nc1-c1cccc(-c2cccc(S(C)(=O)=O)c2)c1` the value was under 6.00.
In the case of `CS(=O)(=O)c1cc(Cl)cc(Oc2cccc(-c3c(C(N)=O)cnc4c(C(F)(F)F)cccc34)c2)c1`, the pIC50 in experiment [4] is 7.21. Also, the pEC50 in the experiment with HepG2 [1] was 5.50; in experiment [5], 4.96; in experiment [6], 5.77; in [7], 5.29; in the experiment on THP-1, 5.72; in [8], 6.34. The Efficacy in the experiment with HepG2 [2] came out at 74%.
The molecule `Cc1nc2c(C(F)(F)F)cccc2nc1-c1cccc(-c2ccc(S(C)(=O)=O)cc2)c1` had a pIC50 in [3] of under 6.00.
Turning to `Cc1nc2c(Cl)cccc2nc1-c1ccc(-c2cccc(S(C)(=O)=O)c2)cc1`, the results for the pEC50 in the experiment with HepG2 [1] and in the experiment with THP-1 were 6.42 and 6.54, respectively. Further, in the experiment with HepG2 [2], the Efficacy was found to be 18%.
Turning to `Cc1nc2c(C(F)(F)F)cccc2nc1-c1ccc(-c2ccc(S(C)(=O)=O)cc2)cc1`, in experiment [3], the pIC50 was under 6.00.
The same measure, in the same setting: for `CS(=O)(=O)c1cccc(-c2ccc(-c3cnc4c(C(F)(F)F)cccc4n3)cc2)c1` the value was under 6.00; for `CNC(=O)c1cccc(-c2ccc(-c3nc4cccc(C(F)(F)F)c4nc3C)cc2)c1`, under 6.00; for `CCS(=O)(=O)c1cccc(-c2ccc(-c3nc4cccc(C(F)(F)F)c4nc3C)cc2)c1`, under 6.00.
For `CNS(=O)(=O)c1cccc(-c2ccc(-c3nc4cccc(C(F)(F)F)c4nc3C)cc2)c1`, the Efficacy with HepG2 [2] is listed as 6%. This molecule showed a pEC50 with THP-1 of 5.83.
